Measurements: US6358885B1, “Substituted phenylheterocyclic herbicides” (Mississippi State University, priority 1992, dated 2002)

Experiments:
Japonica rice [1] = assay: Test E paddy water application plant response rating 0 to 100; assay type: in vivo, oryza sativa; settings: Flood, 0 to 100 scale, approx. 21 days
Source text: (§1) Plastic pots were partially filled with silt loam soil. […] At testing, the water level for all plantings was raised to 2 cm above the soil surface. Chemical treatments were formulated in a non-phytotoxic solvent and applied directly to the paddy water. Treated plants and controls were maintained in a greenhouse for approximately 21 days, after which all species were compared to controls and visually evaluated. […] A dash (-) response means no test result.

waterchestnut = assay: Test D paddy water application plant response rating 0 to 100; assay type: in vivo, Eleocharis spp.; settings: approx. 21 days
Source text: (§2) Plastic pots were partially filled with silt loam soil. The soil was then saturated with water. […] After planting, water levels were raised to 3 cm above the soil surface and maintained at this level throughout the test. Chemical treatments were formulated in a non-phytotoxic solvent and applied directly to the paddy water. Treated plants and controls were maintained in a greenhouse for approximately 21 days, after which all species were compared to controls and visually evaluated. […] A dash (-) response means no test result.

duck salad = assay: as above; assay type: in vivo, Heteranthera limosa; settings: approx. 21 days
Source text: as §2

barnyardgrass [2] = assay: Test E paddy water application plant response rating 0 to 100; assay type: in vivo, Echinochloa crus-galli; settings: Flood, 0 to 100 scale, approx. 21 days
Source text: as §1

Japonica rice [3] = assay: Test D paddy water application plant response rating 0 to 100; assay type: in vivo, Oryza sativa; settings: approx. 21 days
Source text: as §2

barnyardgrass [4] = assay: as above; assay type: in vivo, Echinochloa crus-galli; settings: approx. 21 days
Source text: as §2

umbrella sedge = assay: as above; assay type: in vivo, Cyperus difformis; settings: approx. 21 days
Source text: as §2

arrowhead = assay: as above; assay type: in vivo, Sagittaria spp.; settings: approx. 21 days
Source text: as §2

[5] = Rate 500 g/ha, 0 to 100 scale (0 no effect, 100 complete control)

Fc1cc(Cl)ccc1-c1nn2c(c1Br)CCCC2 [Compound 52]
Japonica 1 plant response rating (Japonica rice [1]; Rate 8 g/ha): 0
Japonica 2 plant response rating (Japonica rice [1]; Rate 8 g/ha): 10
Japonica 1 plant response rating (Japonica rice [1]; Rate 16 g/ha): 10
Japonica 2 plant response rating (Japonica rice [1]; Rate 16 g/ha): 15
Japonica 1 plant response rating (Japonica rice [1]; Rate 32 g/ha): 20
Japonica 2 plant response rating (Japonica rice [1]; Rate 32 g/ha): 20
Japonica 1 plant response rating (Japonica rice [1]; Rate 64 g/ha): 35
Japonica 2 plant response rating (Japonica rice [1]; Rate 64 g/ha): 25
Japonica 1 plant response rating (Japonica rice [1]; Rate 125 g/ha): 55
Japonica 2 plant response rating (Japonica rice [1]; Rate 125 g/ha): 40
Waterchestnut plant response rating (waterchestnut; Rate 32 g/ha, 0 to 100 scale): 0
Waterchestnut plant response rating (waterchestnut; Rate 64 g/ha, 0 to 100 scale): 15
Waterchestnut plant response rating (waterchestnut; Rate 125 g/ha, 0 to 100 scale): 25
Waterchestnut plant response rating (waterchestnut; Rate 250 g/ha, 0 to 100 scale): 40
Waterchestnut plant response rating (waterchestnut; [5]): 65
Duck salad plant response rating (duck salad; Rate 32 g/ha, 0 to 100 scale): 0
Duck salad plant response rating (duck salad; Rate 64 g/ha, 0 to 100 scale): 10
Duck salad plant response rating (duck salad; Rate 125 g/ha, 0 to 100 scale): 80
Duck salad plant response rating (duck salad; Rate 250 g/ha, 0 to 100 scale): 80
Duck salad plant response rating (duck salad; [5]): 100
Barnyardgrass 2 plant response rating (barnyardgrass [2]; Rate 8 g/ha): 40
Barnyardgrass 3 plant response rating (barnyardgrass [2]; Rate 8 g/ha): 35
Barnyardgrass 2 plant response rating (barnyardgrass [2]; Rate 16 g/ha): 45
Barnyardgrass 3 plant response rating (barnyardgrass [2]; Rate 16 g/ha): 55
Barnyardgrass 2 plant response rating (barnyardgrass [2]; Rate 32 g/ha): 100
Barnyardgrass 3 plant response rating (barnyardgrass [2]; Rate 32 g/ha): 65
Barnyardgrass 2 plant response rating (barnyardgrass [2]; Rate 64 g/ha): 100
Barnyardgrass 3 plant response rating (barnyardgrass [2]; Rate 64 g/ha): 100
Barnyardgrass 2 plant response rating (barnyardgrass [2]; Rate 125 g/ha): 100
Barnyardgrass 3 plant response rating (barnyardgrass [2]; Rate 125 g/ha): 100
Japonica rice plant response rating (Japonica rice [3]; Rate 32 g/ha, 0 to 100 scale): 20
Japonica rice plant response rating (Japonica rice [3]; Rate 64 g/ha, 0 to 100 scale): 20
Japonica rice plant response rating (Japonica rice [3]; Rate 125 g/ha, 0 to 100 scale): 25
Japonica rice plant response rating (Japonica rice [3]; Rate 250 g/ha, 0 to 100 scale): 25
Japonica rice plant response rating (Japonica rice [3]; [5]): 30
Barnyardgrass 2 plant response rating (barnyardgrass [4]; Rate 32 g/ha, 0 to 100 scale): 100
Barnyardgrass 2 plant response rating (barnyardgrass [4]; Rate 64 g/ha, 0 to 100 scale): 100
Barnyardgrass 2 plant response rating (barnyardgrass [4]; Rate 125 g/ha, 0 to 100 scale): 100
Barnyardgrass 2 plant response rating (barnyardgrass [4]; Rate 250 g/ha, 0 to 100 scale): 100
Barnyardgrass 2 plant response rating (barnyardgrass [4]; [5]): 100
Umbrella sedge plant response rating (umbrella sedge; Rate 32 g/ha, 0 to 100 scale): 0
Umbrella sedge plant response rating (umbrella sedge; Rate 64 g/ha, 0 to 100 scale): 0
Umbrella sedge plant response rating (umbrella sedge; Rate 125 g/ha, 0 to 100 scale): 20
Umbrella sedge plant response rating (umbrella sedge; Rate 250 g/ha, 0 to 100 scale): 50
Umbrella sedge plant response rating (umbrella sedge; [5]): 80
Arrowhead plant response rating (arrowhead; Rate 32 g/ha, 0 to 100 scale): 10
Arrowhead plant response rating (arrowhead; Rate 64 g/ha, 0 to 100 scale): 10
Arrowhead plant response rating (arrowhead; Rate 125 g/ha, 0 to 100 scale): 40
Arrowhead plant response rating (arrowhead; Rate 250 g/ha, 0 to 100 scale): 30
Arrowhead plant response rating (arrowhead; [5]): 40

C=C(Cl)COc1cc(-c2nn3c(c2Cl)CCCC3)c(F)cc1Cl [Compound 40]
Japonica 1 plant response rating (Japonica rice [1]; Rate 8 g/ha): 15
Japonica 2 plant response rating (Japonica rice [1]; Rate 8 g/ha): 10
Japonica 1 plant response rating (Japonica rice [1]; Rate 16 g/ha): 10
Japonica 2 plant response rating (Japonica rice [1]; Rate 16 g/ha): 15
Japonica 1 plant response rating (Japonica rice [1]; Rate 32 g/ha): 15
Japonica 2 plant response rating (Japonica rice [1]; Rate 32 g/ha): 20
Japonica 1 plant response rating (Japonica rice [1]; Rate 64 g/ha): 15
Japonica 2 plant response rating (Japonica rice [1]; Rate 64 g/ha): 15
Japonica 1 plant response rating (Japonica rice [1]; Rate 125 g/ha): 20
Japonica 2 plant response rating (Japonica rice [1]; Rate 125 g/ha): 20
Waterchestnut plant response rating (waterchestnut; Rate 4 g/ha, 0 to 100 scale): 20
Waterchestnut plant response rating (waterchestnut; Rate 8 g/ha, 0 to 100 scale): 20
Waterchestnut plant response rating (waterchestnut; Rate 16 g/ha, 0 to 100 scale): 30
Waterchestnut plant response rating (waterchestnut; Rate 32 g/ha, 0 to 100 scale): 30
Waterchestnut plant response rating (waterchestnut; Rate 64 g/ha, 0 to 100 scale): 60
Duck salad plant response rating (duck salad; Rate 4 g/ha, 0 to 100 scale): 0
Duck salad plant response rating (duck salad; Rate 8 g/ha, 0 to 100 scale): 0
Duck salad plant response rating (duck salad; Rate 16 g/ha, 0 to 100 scale): 0
Duck salad plant response rating (duck salad; Rate 32 g/ha, 0 to 100 scale): 0
Duck salad plant response rating (duck salad; Rate 64 g/ha, 0 to 100 scale): 45
Barnyardgrass 2 plant response rating (barnyardgrass [2]; Rate 8 g/ha): 15
Barnyardgrass 3 plant response rating (barnyardgrass [2]; Rate 8 g/ha): 25
Barnyardgrass 2 plant response rating (barnyardgrass [2]; Rate 16 g/ha): 25
Barnyardgrass 3 plant response rating (barnyardgrass [2]; Rate 16 g/ha): 20
Barnyardgrass 2 plant response rating (barnyardgrass [2]; Rate 32 g/ha): 45
Barnyardgrass 3 plant response rating (barnyardgrass [2]; Rate 32 g/ha): 35
Barnyardgrass 2 plant response rating (barnyardgrass [2]; Rate 64 g/ha): 60
Barnyardgrass 3 plant response rating (barnyardgrass [2]; Rate 64 g/ha): 40
Barnyardgrass 2 plant response rating (barnyardgrass [2]; Rate 125 g/ha): 85
Barnyardgrass 3 plant response rating (barnyardgrass [2]; Rate 125 g/ha): 50
Japonica rice plant response rating (Japonica rice [3]; Rate 4 g/ha, 0 to 100 scale): 10
Japonica rice plant response rating (Japonica rice [3]; Rate 8 g/ha, 0 to 100 scale): 10
Japonica rice plant response rating (Japonica rice [3]; Rate 16 g/ha, 0 to 100 scale): 15
Japonica rice plant response rating (Japonica rice [3]; Rate 32 g/ha, 0 to 100 scale): 20
Japonica rice plant response rating (Japonica rice [3]; Rate 64 g/ha, 0 to 100 scale): 30
Barnyardgrass 2 plant response rating (barnyardgrass [4]; Rate 4 g/ha, 0 to 100 scale): 20
Barnyardgrass 2 plant response rating (barnyardgrass [4]; Rate 8 g/ha, 0 to 100 scale): 65
Barnyardgrass 2 plant response rating (barnyardgrass [4]; Rate 16 g/ha, 0 to 100 scale): 70
Barnyardgrass 2 plant response rating (barnyardgrass [4]; Rate 32 g/ha, 0 to 100 scale): 100
Barnyardgrass 2 plant response rating (barnyardgrass [4]; Rate 64 g/ha, 0 to 100 scale): 100
Umbrella sedge plant response rating (umbrella sedge; Rate 4 g/ha, 0 to 100 scale): 0
Umbrella sedge plant response rating (umbrella sedge; Rate 8 g/ha, 0 to 100 scale): 0
Umbrella sedge plant response rating (umbrella sedge; Rate 16 g/ha, 0 to 100 scale): 15
Umbrella sedge plant response rating (umbrella sedge; Rate 32 g/ha, 0 to 100 scale): 30
Umbrella sedge plant response rating (umbrella sedge; Rate 64 g/ha, 0 to 100 scale): 80
Arrowhead plant response rating (arrowhead; Rate 4 g/ha, 0 to 100 scale): 0
Arrowhead plant response rating (arrowhead; Rate 8 g/ha, 0 to 100 scale): 0
Arrowhead plant response rating (arrowhead; Rate 16 g/ha, 0 to 100 scale): 0
Arrowhead plant response rating (arrowhead; Rate 32 g/ha, 0 to 100 scale): 0
Arrowhead plant response rating (arrowhead; Rate 64 g/ha, 0 to 100 scale): 0

C#CCN1C(=O)COc2cc(F)c(-c3nn4c(c3Cl)CCCC4)cc21 [Compound 34]
Japonica 1 plant response rating (Japonica rice [1]; Rate 16 g/ha): 75
Japonica 2 plant response rating (Japonica rice [1]; Rate 16 g/ha): 25
Japonica 1 plant response rating (Japonica rice [1]; Rate 32 g/ha): 85
Japonica 2 plant response rating (Japonica rice [1]; Rate 32 g/ha): 30
Japonica 1 plant response rating (Japonica rice [1]; Rate 64 g/ha): 95
Japonica 2 plant response rating (Japonica rice [1]; Rate 64 g/ha): 45
Japonica 1 plant response rating (Japonica rice [1]; Rate 125 g/ha): 98
Japonica 2 plant response rating (Japonica rice [1]; Rate 125 g/ha): 60
Japonica 1 plant response rating (Japonica rice [1]; Rate 250 g/ha): 100
Japonica 2 plant response rating (Japonica rice [1]; Rate 250 g/ha): 95
Waterchestnut plant response rating (waterchestnut; Rate 4 g/ha, 0 to 100 scale): 20
Waterchestnut plant response rating (waterchestnut; Rate 8 g/ha, 0 to 100 scale): 20
Waterchestnut plant response rating (waterchestnut; Rate 32 g/ha, 0 to 100 scale): 20
Waterchestnut plant response rating (waterchestnut; Rate 64 g/ha, 0 to 100 scale): 20
Duck salad plant response rating (duck salad; Rate 4 g/ha, 0 to 100 scale): 0
Duck salad plant response rating (duck salad; Rate 8 g/ha, 0 to 100 scale): 0
Duck salad plant response rating (duck salad; Rate 16 g/ha, 0 to 100 scale): 0
Duck salad plant response rating (duck salad; Rate 32 g/ha, 0 to 100 scale): 0
Duck salad plant response rating (duck salad; Rate 64 g/ha, 0 to 100 scale): 60
Barnyardgrass 2 plant response rating (barnyardgrass [2]; Rate 16 g/ha): 85
Barnyardgrass 3 plant response rating (barnyardgrass [2]; Rate 16 g/ha): 35
Barnyardgrass 2 plant response rating (barnyardgrass [2]; Rate 32 g/ha): 90
Barnyardgrass 3 plant response rating (barnyardgrass [2]; Rate 32 g/ha): 45
Barnyardgrass 2 plant response rating (barnyardgrass [2]; Rate 64 g/ha): 95
Barnyardgrass 3 plant response rating (barnyardgrass [2]; Rate 64 g/ha): 45
Barnyardgrass 2 plant response rating (barnyardgrass [2]; Rate 125 g/ha): 100
Barnyardgrass 3 plant response rating (barnyardgrass [2]; Rate 125 g/ha): 50
Barnyardgrass 2 plant response rating (barnyardgrass [2]; Rate 250 g/ha): 100
Barnyardgrass 3 plant response rating (barnyardgrass [2]; Rate 250 g/ha): 95
Japonica rice plant response rating (Japonica rice [3]; Rate 4 g/ha, 0 to 100 scale): 20
Japonica rice plant response rating (Japonica rice [3]; Rate 8 g/ha, 0 to 100 scale): 30
Japonica rice plant response rating (Japonica rice [3]; Rate 16 g/ha, 0 to 100 scale): 55
Japonica rice plant response rating (Japonica rice [3]; Rate 32 g/ha, 0 to 100 scale): 40
Japonica rice plant response rating (Japonica rice [3]; Rate 64 g/ha, 0 to 100 scale): 50
Barnyardgrass 2 plant response rating (barnyardgrass [4]; Rate 4 g/ha, 0 to 100 scale): 0
Barnyardgrass 2 plant response rating (barnyardgrass [4]; Rate 8 g/ha, 0 to 100 scale): 10
Barnyardgrass 2 plant response rating (barnyardgrass [4]; Rate 16 g/ha, 0 to 100 scale): 20
Barnyardgrass 2 plant response rating (barnyardgrass [4]; Rate 32 g/ha, 0 to 100 scale): 30
Barnyardgrass 2 plant response rating (barnyardgrass [4]; Rate 64 g/ha, 0 to 100 scale): 50
Umbrella sedge plant response rating (umbrella sedge; Rate 4 g/ha, 0 to 100 scale): 0
Umbrella sedge plant response rating (umbrella sedge; Rate 8 g/ha, 0 to 100 scale): 20
Umbrella sedge plant response rating (umbrella sedge; Rate 16 g/ha, 0 to 100 scale): 50
Umbrella sedge plant response rating (umbrella sedge; Rate 32 g/ha, 0 to 100 scale): 70
Umbrella sedge plant response rating (umbrella sedge; Rate 64 g/ha, 0 to 100 scale): 80
Arrowhead plant response rating (arrowhead; Rate 4 g/ha, 0 to 100 scale): 85
Arrowhead plant response rating (arrowhead; Rate 8 g/ha, 0 to 100 scale): 90
Arrowhead plant response rating (arrowhead; Rate 16 g/ha, 0 to 100 scale): 90
Arrowhead plant response rating (arrowhead; Rate 32 g/ha, 0 to 100 scale): 100
Arrowhead plant response rating (arrowhead; Rate 64 g/ha, 0 to 100 scale): 100
